We go through one compound from US7968558B2, “Amidine derivatives of 2-heteroaryl-quinazolines and quinolines; potent analgesics and anti-inflammatory agents” (Rottapharm S.p.A., priority 2006, dated 2011).

Holding throughout (format): in vivo, rat
One assay relates to CFA-induced hyperalgesia. Briefly: CFA model of chronic inflammatory pain.
In assay [1] the test system is Zymosan induced paw volume increase. Briefly: Zymosan-induced paw oedema. The conditions noted are these: oral. The procedure: The interplantar injection of Zymosan-induced mechanical hyperalgesia was used as a model of inflammatory pain (Meller, Neuropharmacology, 1994, 33, 1471-1478). In this model, typically a male Sprague-Dawley or Wistar rat (200-250 g) receives an interplantar injection of 3 mg/100 μl zymosan into one hind paw. A marked inflammation occurs in this hind paw. Drugs are administered orally for evaluation of efficacy, 30 min. before the inflammatory insult. The hyperalgesia induced by zymosan administration was evaluated using the Randall-Selitto method (Arch. Int. Pharmacodyn., 1957, 111, 409). The quantitation of the analgesic effect is achieved by an analgesimeter, which consist in applying to the inflamed paw an increasing weight (from 130-140 g up to 500 g). The difference in the mechanical pain threshold between the basal value (generally 230-250 g) and the one tolerated by the animals treated with the drug, determined 4 hours after the inflammatory challenge, is defined as mechanical hyperalgesia.
Mechanical hyperalgesia is expressed for the compounds of the invention as ED50, which is the dose of the administered compound able to increase the pain threshold by 50% in comparison with the group of control animals. The corresponding ED100, representing the dose able of reducing of 100% the pain threshold, can be calculated for those cases where there is a linear dose-response relationship. In vivo anti-inflammatory effect exerted by the compound of the invention can be assessed in the same Zymosan induced inflammation test described above, by measuring the volume of the oedema induced by the inflammatory agent. The oedema was evaluated as the increase in the volume of the Zymosan injected paw within a time of 0-2 hrs. The measurements of the variation of the oedema volume of the paw were recorded using hydroplethysmometer, which consists of two plastic cuvettes containing a surfactant liquid, the larger one being used for immersion of the paw, connected to the smaller one which contains a trans-ducer capable of recording small displacements of the volume used for the measure. The paw is immersed in the cuvettes up to the tibiotarsal joint. The volume of the liquid displaced is proportional to the extent of the inflammation. The efficacy of the compounds of the invention in preventing oedema formation is expressed as ED30, and is measured 2 hours after the inflammatory challenge, and represents the dose able of reducing of 30%, the Zymosan induced paw volume increase in comparison to control animals (animals treated with Zymosan but treated with only distilled water instead of the testing compound). The corresponding ED50, representing the dose able of reducing of 50% the zymosan induced paw volume increase, can be calculated for those cases where there is a linear dose-response relationship.
In both the experiments, for each test compound, at least three doses were used, with 10 animals per group. Compounds of the invention were tested at 10, 20 and 40 mg/Kg.

The subject of assay [2] is mechanical hyperalgesia associated with STZ-induced diabetes. Briefly: STZ-induced diabetes mechanical hyperalgesia (neuropathic pain). The procedure:
Streptozotocin (STZ)-induced diabetes in the rat has been increasingly used as a model of painful diabetic neuropathy to assess the efficacies of potential analgesic agents (C. Courteix, Pain 1993, 53, 81-8). The compounds of the invention were tested for efficacy in reducing mechanical hyperalgesia associated with STZ-induced diabetes in the rat, according to the experimental model as described by the literature. Diabetes was produced with the injection of a single dose (75 mg/Kg i.p.) of STZ. In the following four weeks after the induction of diabetes the clinical symptoms (weight, body and skin temperature, motility and hyperglycemia) progressively developed by the animals, are strictly monitored. After four weeks, the scores obtained in diabetic rats to various pain stimuli (in particular mechanical stimuli) were grater than those in normal rats, indicating hyperalgesia. The hyperalgesia induced by diabetes was evaluated using the Randall-Selitto method as above described, and quantitated using the analgesimeter. Also in this case, the difference in the mechanical pain threshold between the basal value (generally 230-250 g) and the one tolerated by the animals treated with the drug, is defined as mechanical hyperalgesia. The compounds of the invention were administered i.p. (solution, Tween 80, 10% in saline) at different doses, and mechanical hyperalgesia was measured at the reported time, as maximum percent effect (MPE) which represents the difference (%) in pain threshold between the animals treated with the drug and the controls that received only the vehicle, compared with the weight borne by naïf non-diabetic controls. A 100% protection means that the diabetic animals treated with the compound can tolerate the same stimulus (weight) as the naïf non-diabetic animals. MPE higher than 100% means that the diabetic animal treated with the compound can tolerate stimuli (weight) higher than the control non-diabetic animals (hypoalgesia).

Regarding `CC(=N)Nc1ccc2nc(-c3ccc4c(c3)OCO4)ncc2c1` [Example 1, N-[2-(1,3-benzodioxol-5-yl)quinazolin-6-yl]acetamidine], the “MPE 0.5 hrs.” value with CFA-induced hyperalgesia (3 mg/Kg i.p.) was found to be 9%; with CFA-induced hyperalgesia (10 mg/Kg i.p.), 28%; in the assay with CFA-induced hyperalgesia (30 mg/Kg i.p.), 418%; in assay [2] (3 mg/Kg i.p.), 15%; in assay [2] (10 mg/Kg i.p.) it was 59%; in assay [2] (30 mg/Kg i.p.), 110%. For the same compound, the “MPE 1.5 hrs.” value is on record as 47% with CFA-induced hyperalgesia (10 mg/Kg i.p.); 395% in the assay with CFA-induced hyperalgesia (30 mg/Kg i.p.); 30% in assay [2] (3 mg/Kg i.p.); 34% in assay [2] (10 mg/Kg i.p.); 137% in assay [2] (30 mg/Kg i.p.). Also, the “MPE 3 hrs.” value is 15% in the assay with CFA-induced hyperalgesia (10 mg/Kg i.p.); 384% in the assay on CFA-induced hyperalgesia (30 mg/Kg i.p.); 45% in assay [2] (3 mg/Kg i.p.); 46% in assay [2] (10 mg/Kg i.p.); 101% in assay [2] (30 mg/Kg i.p.). For the same compound, the “MPE 6 hrs.” value with CFA-induced hyperalgesia (10 mg/Kg i.p.) came out at 30%; with CFA-induced hyperalgesia (30 mg/Kg i.p.), 132%. For the same compound, in the assay on CFA-induced hyperalgesia (30 mg/Kg i.p., 24 hrs.), the “MPE 24 hrs.” value was 60%. Moreover, the ED50 in assay [1] (Rattus norvegicus, calculated from linear dose-response, read-out: Oedema Reduction ED50) was 23.1 mg/kg. Further, the “Oedema Reduction ED30” value in assay [1] (2 hours after challenge) was determined as 12.2 mg/kg.
